Data reported in US20140343324A1, “SYNTHETIC MATRIX FOR CONTROLLED CELL INGROWTH AND TISSUE REGENERATION” (Eidgenossische Technische Hochschule Zürich, priority 2001, published 2014).

Tested on: human foreskin fibroblasts (hFFs)
Experiment: Three-dimensional cell invasion from hFF-fibrin clusters into PEG-based hydrogels
Details: compared with collagen type I derived GCRDGPQGIAGQDRCG
Method: Near-confluent cultures of human foreskin fibroblasts (hFFs) were trypsinized, centrifuged and resuspended in 2% (m/v) fibrinogen from human plasma (Fluka, Switzerland) in sterile phosphate buffered solution (PBS) to a concentration of […]. To induce gelation of the hFF-fibrinogen suspension, thrombin (Sigma T-6884, Switzerland) and Ca^++ were added to final concentrations of 2 NIH units/mL and 2.5 mM, respectively, and rapidly mixed with the cell suspension. Prior to gelation, 2 μL droplets of this cell-fibrinogen precursor were gelled on microscope slides for ca. 15 min. at 37° C. The hFF-fibrin clusters were embedded inside 25 μl PEG-based hydrogels by placing three to four clusters into precursor solution prior to gelation. Such hFF-fibrin clusters embedded inside the PEG-based hydrogels were cultured serum-containing DMEM in the 12-well tissue culture plates for up to 30 days. Cell invasion from the cluster into the synthetic gel matrix was imaged and recorded with their center plane in focus. To quantify the penetration depth of the outgrowth, the area of the original hFF-fibrin cluster was measured in the center plane, as was the area of the hFF outgrowth, defined by the tips of the hFF branches in the center plane of focus. […]

## GCRDGPQGIWGQDRCG (Ac-GCRDGPQGIWGQDRCG-NH2; cysteine pairing not given here) [synthetic MMP substrate capable of forming a hydrogel by Michael-type addition]
  degradation of MMP substrate in hydrogel: degrades significantly faster
